From US10759813B2, “Neprilysin inhibitors” (THERAVANCE BIOPHARMA R&D IP, LLC, priority 2010, dated 2020)

biological target: human neprilysin (EC 3.4.24.11; NEP) (Homo sapiens (Human), UniProt P08473); test: In vitro enzyme inhibition assay at human NEP (fluorogenic peptide substrate); assay type: biochemical; details: pKi values at human NEP, recombinant human NEP
How it was run: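 Recombinant human NEP preincubated 30 min at 37 °C with compound (10 μM down to pM), then 10 μM Mca-D-Arg-Arg-Leu-Dap-(Dnp)-OH in 50 mM HEPES pH 7.5, 100 mM NaCl, 0.01% Tween-20, 10 μM ZnSO4. Stopped after 20 min with acetic acid; fluorescence Ex320/Em405; Ki by nonlinear fit, reported as pKi.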

Chain of human neprilysin (EC 3.4.24.11; NEP) (P08473 52-750): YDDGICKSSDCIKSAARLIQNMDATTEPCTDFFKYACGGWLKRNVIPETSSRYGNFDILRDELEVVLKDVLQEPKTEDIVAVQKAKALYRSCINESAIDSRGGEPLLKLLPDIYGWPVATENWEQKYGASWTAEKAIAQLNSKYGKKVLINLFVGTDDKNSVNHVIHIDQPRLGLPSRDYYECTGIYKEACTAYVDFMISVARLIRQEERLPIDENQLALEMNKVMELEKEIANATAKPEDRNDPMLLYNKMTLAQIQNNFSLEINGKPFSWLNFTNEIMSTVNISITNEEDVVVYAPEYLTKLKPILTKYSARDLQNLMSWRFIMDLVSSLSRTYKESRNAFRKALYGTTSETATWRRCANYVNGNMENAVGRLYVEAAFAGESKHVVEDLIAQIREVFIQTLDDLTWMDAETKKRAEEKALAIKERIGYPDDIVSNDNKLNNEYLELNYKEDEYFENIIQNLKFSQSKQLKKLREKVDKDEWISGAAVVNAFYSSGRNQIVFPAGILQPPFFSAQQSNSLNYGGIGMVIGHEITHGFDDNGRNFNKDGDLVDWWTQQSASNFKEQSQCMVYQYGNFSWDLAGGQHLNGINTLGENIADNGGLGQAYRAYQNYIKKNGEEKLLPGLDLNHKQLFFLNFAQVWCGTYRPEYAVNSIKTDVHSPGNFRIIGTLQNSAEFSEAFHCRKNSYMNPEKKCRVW

Row | Compound | pKi | Ki [nM]
1 | O=C(N[C@H](Cc1ccc(-c2ccccc2)cc1Cl)C[C@@H](O)C(=O)O)c1nn(-c2cccc(Cl)c2)c(=O)[nH]1 [Example 20-3, (2R,4R)-5-(3-Chloro-biphenyl-4-yl)-4-{[1-(3-chloro-phenyl)-5-oxo-4,5-dihydro-1H-[1,2,4]triazole-3-carbonyl]-amino}-2-hydroxy-pentanoic acid] | ≥9.0 | –
2 | O=C(N[C@H](Cc1ccc(-c2ccccc2)cc1Cl)C[C@@H](O)C(=O)O)c1nn(-c2ccccc2)c(=O)[nH]1 [Example 20-4, (2R,4R)-5-(3-Chloro-biphenyl-4-yl)-2-hydroxy-4-[(5-oxo-1-phenyl-4,5-dihydro-1H-[1,2,4]triazole-3-carbonyl)-amino]-pentanoic acid] | ≥9.0 | –
3 | CN(C)C(=O)c1cc(C(=O)N[C@H](Cc2ccc(-c3ccccc3)cc2Cl)C[C@@H](O)C(=O)O)[nH]n1 [Example 20-5, (2R,4R)-5-(3-Chloro-biphenyl-4-yl)-4-[(5-dimethylcarbamoyl-2H-pyrazole-3-carbonyl)-amino]-2-hydroxy-pentanoic acid] | ≥9.0 | –
4 | COCCN(C)C(=O)c1cc(C(=O)N[C@H](Cc2ccc(-c3ccccc3)cc2Cl)C[C@@H](O)C(=O)O)[nH]n1 [Example 20-6, (2R,4R)-5-(3-Chloro-biphenyl-4-yl)-2-hydroxy-4-({5-[(2-methoxy-ethyl)-methyl-carbamoyl]-2H-pyrazole-3-carbonyl}-amino)-pentanoic acid] | ≥9.0 | –
5 | CC(=O)c1cc(C(=O)N[C@H](Cc2ccc(-c3ccccc3)cc2Cl)C[C@@H](O)C(=O)O)[nH]n1 [Example 20-7, (2R,4R)-4-[(5-Acetyl-2H-pyrazole-3-carbonyl)-amino]-5-(3-chloro-biphenyl-4-yl)-2-hydroxy-pentanoic acid] | ≥9.0 | –
6 | O=C(N[C@H](Cc1ccc(-c2ccccc2)cc1Cl)C[C@@H](O)C(=O)O)c1cc(-c2cccnc2)n[nH]1 [Example 20-8, (2R,4R)-5-(3-Chloro-biphenyl-4-yl)-2-hydroxy-4-[(5-pyridin-3-yl-2H-pyrazole-3-carbonyl)-amino]-pentanoic acid] | ≥9.0 | –
7 | O=C(N[C@H](Cc1ccc(-c2ccccc2)cc1Cl)C[C@@H](O)C(=O)O)c1cc(-c2ccccn2)n[nH]1 [Example 20-9, (2R,4R)-5-(3-Chloro-biphenyl-4-yl)-2-hydroxy-4-[(5-pyridin-2-yl-2H-pyrazole-3-carbonyl)-amino]-pentanoic acid] | – | 1.26 to 10
8 | O=C(N[C@H](Cc1ccc(-c2cc(Cl)ccc2F)cc1)C[C@@H](O)C(=O)O)c1ccc2nnn(O)c2c1 [Example 22, (2R,4R)-5-(5′-Chloro-2′-fluorobiphenyl-4-yl)-2-hydroxy-4-[(3-hydroxy-3H-benzotriazole-5-carbonyl)-amino]-pentanoic Acid] | ≥9.0 | –
9 | CC(C)(c1ccc(-c2ccccc2)cc1)[C@H](C[C@@H](O)C(=O)O)NC(=O)c1cc(C(=O)O)n[nH]1 [Example 24, 5-[(S)-2-Biphenyl-4-yl-1-((R)-2-carboxy-2-hydroxy-ethyl)-2-methyl-propylcarbamoyl]-1H-pyrazole-3-carboxylic Acid] | ≥9.0 | –

Second part, the molecule after the results:

Row | pKi | Ki [nM] | Compound
10 | ≥9.0 | – | O=C(N[C@H](Cc1ccc(-c2cccc(Cl)c2)cc1Cl)C[C@@H](O)C(=O)O)c1cnn[nH]1 [Example 21-1, (2R,4R)-5-(3,3′-Dichlorobiphenyl-4-yl)-2-hydroxy-4-[(3H-[1,2,3]triazole-4-carbonyl)-amino]-pentanoic acid]
11 | ≥9.0 | – | COCc1cc(C(=O)N[C@H](Cc2ccc(-c3cccc(Cl)c3)cc2Cl)C[C@@H](O)C(=O)O)[nH]n1 [Example 21-2, (2R,4R)-5-(3,3′-Dichloro-biphenyl-4-yl)-2-hydroxy-4-[(5-methoxymethyl-2H-pyrazole-3-carbonyl)-amino]-pentanoic acid]
12 | ≥9.0 | – | Cc1cccc(-c2ccc(C[C@@H](C[C@H](O)C(=O)O)NC(=O)c3ccc4nnn(O)c4c3)cc2)c1 [Example 23-1, (2S,4S)-2-Hydroxy-4-[(3-hydroxy-3H-benzotriazole-5-carbonyl)-amino]-5-(3′-methyl-biphenyl-4-yl)-pentanoic acid]
13 | ≥9.0 | – | COc1ccccc1-c1ccc(C[C@@H](C[C@H](O)C(=O)O)NC(=O)c2ccc3nnn(O)c3c2)cc1 [Example 23-3, (2S,4S)-2-Hydroxy-4-[(3-hydroxy-3H-benzotriazole-5-carbonyl)-amino]-5-(2′-methoxy-biphenyl-4-yl)-pentanoic acid]
14 | ≥9.0 | – | O=C(N[C@@H](Cc1ccc(-c2cc(Cl)ccc2Cl)cc1)C[C@H](O)C(=O)O)c1ccc2nnn(O)c2c1 [Example 23-4, (2S,4S)-5-(2′,5′-Dichlorobiphenyl-4-yl)-2-hydroxy-4-[(3-hydroxy-3H-benzotriazole-5-carbonyl)-amino]-pentanoic acid]
15 | ≥9.0 | – | O=C(N[C@@H](Cc1ccc(-c2cc(O)cc(Cl)c2)cc1)C[C@H](O)C(=O)O)c1ccc2nnn(O)c2c1 [Example 23-8, (2S,4S)-5-(3′-Chloro-5′-hydroxy-biphenyl-4-yl)-2-hydroxy-4-[(3-hydroxy-3H-benzotriazole-5-carbonyl)-amino]-pentanoic acid]
16 | – | 12.6 to 100 | CC(C)(c1ccc(-c2ccccc2)cc1)[C@H](C[C@@H](O)C(=O)O)NC(=O)c1c[nH]nn1 [Example 25-1, (2R,4S)-5-Biphenyl-4-yl-2-hydroxy-5-methyl-4-[(1H-[1,2,3]triazole-4-carbonyl)-amino]-hexanoic acid]
17 | – | 1.26 to 10 | CC(C)(c1ccc(-c2ccccc2)cc1)[C@H](C[C@@H](O)C(=O)O)NC(=O)c1cn(O)nn1 [Example 25-2, (2R,4S)-5-Biphenyl-4-yl-2-hydroxy-4-[(1-hydroxy-1H-[1,2,3]triazole-4-carbonyl)-amino]-5-methyl-hexanoic acid]
18 | ≥9.0 | – | CC(C)(c1ccc(-c2ccccc2)cc1)[C@H](C[C@@H](O)C(=O)O)NC(=O)c1cc(O)no1 [Example 25-3, (2R,4S)-5-Biphenyl-4-yl-2-hydroxy-4-[(3-hydroxy-isoxazole-5-carbonyl)-amino]-5-methyl-hexanoic acid]
